# Experimental data reported in patent US9707244B2, “Compositions and methods for treating conditions that affect epidermis” (Gencia Corporation, priority 2013, dated 2017).
# “Also recorded” adds a separate entry of the source.
# Experiments:
# fibroblasts = assay: Oxygen consumption rate (XF24 extracellular flux analyzer) in fibroblasts; assay type: cell-based; details: 5 nM to 500 nM; within thirty minutes of treatment; compared to 10 μM unmodified creatine
# Description: In this assay, an XF24 extracellular flux analyzer (Seahorse Bioscience, North Billerica, Mass.) was used to measure mitochondrial oxygen consumption in intact cells. The XF24 analyzer creates a transient 7 μL chamber in specialized microplates that allows determination of oxygen and proton concentrations in real time through the measurement of oxygen sensitive dyes by the XF24 instrument. 24 hours prior to OCR measurement, fibroblasts were seeded into 20 wells of the 24 well tissue culture plate while 1 ml of XF Calibrant solution (Seahorse Bioscience, North Billerica, Mass.) was added to each well of a 24 well dual-analyte sensor cartridge (Seahorse Bioscience, North Billerica, Mass.). The sensor cartridge repositioned on the 24 well calibration plate, and the plate was incubated overnight at 37° C. without additional CO2.
# On the day of the experiment, the injection ports on the sensor cartridge were loaded with compound A-1 or creatine as indicated at 10× concentrations and placed into the XF24 Flux Analyzer for automated calibration. […]
# The results of the assay for Mitocreatine at 5 nM, 10 nM, 50 nM, and 500 nM concentrations are shown in FIG. 2 as a percent change from the untreated control. For comparison, the results obtained Mitocreatine were compared with the percent increase in oxygen consumption rate measured upon addition of 10 μM creatine.
# adult participants = assay: Double-blind, randomized, placebo-controlled study of 0.1% Mitocreatine lotion on the dorsum of the hand; assay type: in vivo, human
# Description: This was followed by a double-blind, randomized, placebo-controlled safety and efficacy trial of 0.1% once-daily topical application of mitocreatine to the dorsum of hands. […]. After obtaining informed consent, participants were interviewed by a physician for screening for history of skin disease, allergy and general medical issues. An initial evaluation of skin on the dorsum of the hand was performed. Qualifying participants were issued the test articles and self-assessment forms, and instructed to apply the “Right hand” and “Left hand” vial contents to the dorsum of respective hands once daily, preferably in the evening. Participants were allowed the use of other cosmetics. Once a week the participants filled out the self-assessment forms as instructed during the initial evaluation. The questions in the forms pertained to comparisons of wrinkling, color, pigmented lesions, hydration, roughness and elasticity of skin between right and left hand. One question also elicited the subjective overall impression of skin appearance (better vs. worse) between the hands. […] The participants and the evaluator were blinded to the treated side until after the exit evaluation was finished.
# Before the start of study a set of 30 consecutively numbered pairs of bottles containing drug or placebo creams was generated. Of these 30 pairs of bottles 15 pairs treated the right side treated and 15 pairs treated the left side with the drug. The order of right vs. left treatment pairs was random. Participants were assigned a number in the order of recruitment. 17 subjects participated in the study, whereof 15 completed the study. Two subjects dropped out of the study due to non-study related causes. Of the 15 remaining individuals, 9 had their right hand treated whereas 6 had their left hand treated. Data from initial and exit evaluations and self-report forms were tabulated and analyzed using Fisher's exact test and Pearson's chi-squared test. Skin on the dorsum of participants' hands was evaluated by a physician at the initial evaluation and at the conclusion of the study. None of the volunteers had lesions disqualifying from participation (neoplasm, large vascular lesions, wounds, burns, large scars).
# The weekly self-report forms included questions about the following adverse outcomes: itching, redness, pain, swelling, blistering, other discoloration, skin cracking and dryness. Participants were also provided with a contact number and instructed to immediately report any of the listed or other worrisome events.
# [1] = tested on: Human hepatocellular liver carcinoma cell line HepG2; assay: Survival of HepG2 cells treated with chemotherapeutic agents (DAPI fluorescence); assay type: cell-based; details: Cetuximab, Gemcitabine or Temozolomide; 48 hours
# Description: Fibroblasts were incubated with increasing amounts of Mitocreatine and certain anti-neoplastic agents, such as Cetuximab, Gemcitabine and Temozolomide. After incubation, cells were washed and the number of adherent (i.e. surviving) cells was assessed by DAPI fluorescence, which was measured utilizing a plate reader (PHERA Star FS from BMG Labtech). For these experiments two kinds of cells were used. Either the Human hepatocellular liver carcinoma cell line HepG2, or the BJ human fibroblast cells, which are established from normal human foreskin. […] Mitocreatine and the antineoplastic agent were added simultaneously.
# [2] = tested on: AG11073 untransformed human skin fibroblasts from a person; assay: Cellular senescence assay (SA-β-Gal fluorometric), aged fibroblasts; assay type: cell-based; details: 5 nM to 200 nM, p<0.01 for 5-100 nM, p<0.05 for 200 nM
# Excerpt: Senescent cells show common biochemical markers such as expression of an acidic senescence-associated β-galactosidase (SA-β-Gal) activity. While senescence has been characterized primarily in cultured cells, there is also evidence that it occurs in vivo. Cells expressing markers of senescence such as SA-β-Gal have been identified in normal tissues. To determine whether modified Mitocreatine analogues may influence the scenesence in aged fibroblasts, a 96-well Cellular Senescence Assay (SA-β-Gal Fluorometric Format) Cat # CBA-231 Cell Biolabs, Inc. was employed and buffers referenced were supplied by the manufacturer and in some cases freshly prepared prior to usage according to the manufacturer's instructions.
# The cells utilized were Human Skin Fibroblast acquired from Coriell Cell Repository. The cell line AG11073 is untransformed human skin fibroblasts from a person. The primary culture was initiated from explants of a 2 mm-punch biopsy. The cell line AG16409 was untransformed human skin fibroblasts from a person.
# Cells were grown in a 96 well plate. […]
# 50 μL, of the reaction mixture was removed to a 96-well plate suitable for fluorescence measurement. The reaction was stopped by adding 200 μL of Stop solution and fluorescence was measured with a fluorescence plate reader (PHERA Star FS from BMG Labtech) at 360 nm (Excitation)/465 nm (Emission).
smiles,measurement,setting,value
"CN(CC(=O)NCCC[P+](c1ccccc1)(c1ccccc1)c1ccccc1)C(=N)N.Cl.[Cl-] [Mitocreatine, N^2-[ammonio(imino)methyl]-N^2-methyl-N-[3-(triphenylphosphonio)propyl] glycinamide dichloride]",oxygen consumption rate,fibroblasts,significant increase in oxygen consumption rate
same,adverse outcomes reported by participants,"adult participants; 0.1% lotion once daily, four weeks",No adverse outcomes
same,pathological changes noted by the evaluating physician,"adult participants; 0.1% lotion once daily, final follow-up visit",No pathological changes
same,participants who correctly identified the treated hand,"adult participants; 13/15, p=0.0074 by binomial test",87%
same,participants with improvement in wrinkles,"adult participants; drug hand, 7/15, p=0.0033",45%
same,participants with an improvement in general skin health,"adult participants; drug hand, 11/15, p=0.00025",73%
same,participants with improvement in thickness,"adult participants; drug hand, 13/15, p=0.0029",87%
same,participants with improvement in tightness,"adult participants; drug hand, 13/15, p=0.019",87%
same,participants reporting an improvement in at least two measures,"adult participants; drug hand, 14/15, 0.1% lotion, four weeks, p=0.0142",93%
same,survival of HepG2 cells,[1],not improve the survival
same,β-galactosidase expression/activity (senescence marker),[2],statistically significant decrease; also recorded: retards senescence
